Assay results published in patent US6747050B1, “Isoxazoline derivative and a process for the preparation thereof” (LG Chem Investment Ltd., priority 1999, dated 2004).
One block for each compound: values may come before it.

Key:
C57BL/6 female mice [1] = test: anti-Fas antibody (Jo2)-induced liver apoptosis and lethality in mice; format: in vivo
Protocol: (§1) […] C57BL/6 female mice (18-20 g) were injected i.p. with compound 33MP dissolved in vehicle which consists of olive oil and 10% DMSO, or vehicle alone, at 1 hr before i.v. injection with 10 μg of Anti-Fas antibody (Jo2). Following 4 hrs of i.v. injection with Jo2 antibody, animals were placed under inhaled isoflurane anesthesia for blood collection and liver isolation. Mice were also i.p. injected with 0.2 μg/20 g of TNFα and 12 mg/20 g of D-galactosamine (TNFα/GalN) and compound 33MP or its salt form (Compound 33MP-Na). 8 hrs later, blood and liver tissues were isolated from anesthetized animals. The liver tissues were snap-frozen and stored at −80° C. until use. Plasma was isolated from blood by centrifugation at 12,000×g for 10 min at 4° C. and stored at −80° C. In some experiments for animal mortality, mice were i.p. injected with TNFα/GalN and caspase inhibitor was injected 1 hr before, simultaneously, 2 hrs, or 4 hrs after TNFα/GalN injection
(§2) Whole tissues (0.5 g) were homogenated in ice-cold lysis buffer (5 mM Tris, 20 mM EDTA, 0.5% Triton-X 100, pH8.0). […] The supernatant was obtained and extracted twice with a mixture of phenol and chloroform. One-tenth volume of 3 M sodium acetate was added to the solution, and DNA was precipitated by adding an equal volume of isopropanol. After storing at −20° C. overnight, a DNA pellet was obtained by centrifugation at 12,000×g for 15 min. at 4° C. and washed twice with 75% ethanol. The pellet was dried and resuspended in 100 μl of 20 mM Tris-HCl, pH 8.0. After digesting RNA with DNase-free RNase (0.1 mg/ml, at 37° C. for 1 hr, samples […] were electrophoresed through a 1.2% agarose gel in 450 mM Tris borate+EDTA (TBE), pH 8.0 buffer. DNA was photographed under visualized with UV light.
(§3) Liver tissues were homogenated in 10 mM HEPES buffer containing protease inhibitors (5 μg/ml aprotinin, 5 μg/ml pepstatin A, 10 μg/ml leupeptin, and 0.5 mM PMSF) and lysed by three feeze/thaw cycles. […] Protein concentration was determined with BCA protein assay reagent (pierce, Rockford, Ill.). Cytosol containing 200 μg protein was combined in 96-well plate with […] of synthetic substrate Ac-DEVD-pNA in 150 μl of 100 mM HEPES, pH 7.4, containing the protease inhibitors, and the reaction was conducted for 1 hr at 37° C. […] Plasma level of aspartate aminotransferase (AST) was analyzed by spectrophotometry using each enzyme assay kit (Sigma).

[2] = tested on: caspase-3-like activity (Ac-DEVD-pNA); test: Caspase-3-like activity in TNFα/ActD-treated primary rat hepatocytes; format: cell-based; conditions: 100 μM, 8 hrs
Protocol: Primary rat hepatocytes were isolated and purified from male Sprague-Dawley rats using a collagenase digestion method. The hepatocytes were purified over 30% Percoll gradient by centrifugation at 1,000×g for 10 min. at 4° C. […] The cells were plated on collagen-coated tissue culture plates at a density of 2×10^5 cells/well in 12-well plates for cell viability analysis or 5×10^6 cells/100 mm dish for enzyme assays. After 18 hrs preculture, the cells were treated with 2,000 units/ml TNFα and 0.2 μg/ml Actinomycin (ActD). Caspase activity and cell viability was determined by colorimetry using a caspase substrate Ac-DEVD-pNA and crystal violet staining method at 8 hrs and 12 hrs, respectively.

C57BL/6 female mice [3] = test: TNFα-induced liver toxicity and lethality in mice; format: in vivo; conditions: TNFα/ActD
Protocol: as §1, with “Mice were also i.p. injected with 0.2 μg/20 g of TNFα and 12 mg/20 g of D-galactosamine (TNFα/GalN) and compound 33MP or its salt form (Compound 33MP-Na).” left out
as §2, §3

caspase-1 = target: T1, caspase-1 (Homo sapiens, UniProt P29466); test: Recombinant caspase enzyme inhibition, fluorogenic substrate Ac-YVAD-AMC; format: biochemical; conditions: Irreversible Inhibitors; read-out: Kobs/[I] for caspase-1
T1 construct: made in house; host or cells: transformed bacterium (pET vector)
T1 sequence (P29466 120-297 limits assumed): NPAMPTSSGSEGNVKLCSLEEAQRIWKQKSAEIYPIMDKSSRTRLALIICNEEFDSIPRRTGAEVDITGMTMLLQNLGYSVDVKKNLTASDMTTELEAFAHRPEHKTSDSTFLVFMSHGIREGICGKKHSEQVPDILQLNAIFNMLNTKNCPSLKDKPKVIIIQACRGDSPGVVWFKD
T1 sequence (P29466 317-404 limits assumed): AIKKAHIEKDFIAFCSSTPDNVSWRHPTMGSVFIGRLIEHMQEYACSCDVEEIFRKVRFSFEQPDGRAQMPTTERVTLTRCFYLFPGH
Protocol: (§4) In the present experiment recombinant caspases were purified from a transformed bacterium after human caspase genes were cloned into the expression vector pET, and then used in the experiment (Thornberry, N. A. et al. Nature, 1992, 356, 768. Thornberry, N. A. Methods in Enzymology, 1994, 615.).
(§5) Enzymatic activity was measured by a known procedure (Walker N. P. C. et al., Cell 1994, 78, 343). Briefly, 10 ng of recombinant protein was mixed with 50 mM Tris(pH 7.0), 1 mM DTT, 0.5 mM EDTA, 10% Glycerol buffer containing 1˜100 μM of enzyme substrate, Ac-YVAD-AMC or Ac-DEVD-AMC and then the changes by isolated AMC at 37° C. were recorded. The inhibitory activity for caspases was calculated from the early enzyme reaction rate by measuring the changes with fluorescence excited at […] and emitted at 460 nm (Range; Ki<100 nM).

caspase-3 = target: T2, caspase-3 (Homo sapiens, UniProt P42574); test: Recombinant caspase enzyme inhibition, fluorogenic substrate Ac-DEVD-AMC; format: biochemical; conditions: Irreversible Inhibitors; read-out: Kobs/[I] for caspase-3
T2 construct: made in house; host or cells: transformed bacterium (pET vector)
T2 sequence (P42574 29-175 limits assumed): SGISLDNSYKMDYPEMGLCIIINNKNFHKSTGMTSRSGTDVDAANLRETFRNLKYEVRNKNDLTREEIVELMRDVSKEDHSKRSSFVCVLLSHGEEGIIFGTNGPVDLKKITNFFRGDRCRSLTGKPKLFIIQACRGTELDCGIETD
T2 sequence (P42574 176-277 limits assumed): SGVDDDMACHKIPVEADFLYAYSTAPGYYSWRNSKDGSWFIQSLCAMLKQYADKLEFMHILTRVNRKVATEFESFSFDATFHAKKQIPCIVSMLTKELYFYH
Protocol: as §4, §5

Compound: CC(C)[C@H](NC(=O)c1cccc2ccccc12)C1=NOC(Cc2ccccc2)(C(=O)N[C@@H](CC(=O)O)C(=O)COC(=O)c2c(Cl)cccc2Cl)C1 (stereo partly drawn) [Compound 33MP, (3S)-3-{3-[2-Methyl-(1S)-1-(1-naphthalenecarbonylamino)-propyl]-5-phenylmethyl-4,5-dihydro-isoxazole-5-carbonylamino}-4-keto-5-(2,6-dichlorobenzoyloxy)-pentanoic Acid]
liver apoptosis determined by DNA fragmentation (FIG. 9A) (C57BL/6 female mice [1]; 0.4 mg/20 g, 1 mg/20 g i.p. 1 hr before antibody, 4 hrs): suppressed the liver apoptosis in a dose-dependent manner | release of liver enzyme AST (FIG. 9B) (C57BL/6 female mice [1]; 4 hrs after anti-Fas antibody): significantly suppressed | caspase-3-like activity in liver tissues (FIG. 10) (C57BL/6 female mice [1]; anti-Fas antibody increased activity about 25-folds): abrogated | inhibition of mortality compared with Z-VAD-fmk (C57BL/6 female mice [1]; mouse, in vivo): more effective | suppression of AST release compared with Z-VAD-fmk (C57BL/6 female mice [1]; mouse, in vivo): higher | suppression of liver apoptosis compared with Z-VAD-fmk (C57BL/6 female mice [1]; mouse, in vivo): higher | reduction of mortality (FIG. 11) (C57BL/6 female mice [1]; within 24 hrs, antibody alone 85% died): about 30% | caspase-3-like activity increased by TNFα/ActD (FIG. 15A) [2]: not different | DNA fragmentation in liver tissues (FIG. 12A) (C57BL/6 female mice [3]): significantly reduced | caspase-3-like activity in liver (FIG. 13) (C57BL/6 female mice [3]): suppressed | inhibitory effect on caspase activity compared with Z-VAD-fmk (C57BL/6 female mice [3]): higher | protective effect compared with Z-VAD-fmk (C57BL/6 female mice [3]): higher | release of AST (FIG. 12B) (C57BL/6 female mice [3]): suppressed

kinact/KI (caspase-1): 707000 M⁻¹ s⁻¹ | kinact/KI (caspase-3): 1230 M⁻¹ s⁻¹
Compound: CC(C)[C@H](NC(=O)c1cc2ccccc2[nH]1)C1=NOC(Cc2ccccc2)(C(=O)N[C@@H](CC(=O)O)C(=O)COC(=O)c2c(Cl)cccc2Cl)C1 (stereo partly drawn) [Compound 64, (3S)-3-{3-[2-Methyl-(1S)-1-(indole-2-carbonylamino)-propyl]-5-phenylmethyl-4,5-dihydro-isoxazole-5-carbonylamino}-4-keto-5-(2,6-dichlorobenzoyloxy)-pentanoic Acid]

kinact/KI (caspase-1): 357000 M⁻¹ s⁻¹ | kinact/KI (caspase-3): 1560 M⁻¹ s⁻¹
Compound: CC(C)[C@H](NC(=O)c1c[nH]c2ccccc12)C1=NOC(Cc2ccccc2)(C(=O)N[C@@H](CC(=O)O)C(=O)COC(=O)c2c(Cl)cccc2Cl)C1 (stereo partly drawn) [Compound 66, (3S)-3-{3-[2-Methyl-(1S)-1-(indole-3-carbonylamino)-propyl]-5-phenylmethyl-4,5-dihydro-isoxazole-5-carbonylamino}-4-keto-5-(2,6-dichlorobenzoyloxy)-pentanoic Acid]

kinact/KI (caspase-1): 616000 M⁻¹ s⁻¹ | kinact/KI (caspase-3): 2390 M⁻¹ s⁻¹
Compound: CC(C)[C@H](NC(=O)c1cccc2ccccc12)C1=NOC(C)(C(=O)N[C@@H](CC(=O)O)C(=O)COC(=O)c2c(Cl)cccc2Cl)C1 (stereo partly drawn) [Compound 68, (3S)-3-{3-[2-Methyl-(1S)-1-(naphthalene-1-carbonylamino)-propyl]-5-methyl-4,5-dihydro-isoxazole-5-carbonylamino}-4-keto-5-(2,6-dichlorobenzoyloxy)-pentanoic Acid]
